Key:
PBMCs [1] = test: PBMC assay, IL-6 release (HTRF); type: cell-based; conditions: PBMCs from healthy donors, overnight, IL-6 induction by HTRF, average of quadruplicate
TLR8 = molecular target: T1, TLR8 (Homo sapiens, UniProt Q9NR97); test: Reporter gene assay, HEK-Blue TLR8 reporter cells (SEAP)
T1 sequence (Q9NR97 27-1041): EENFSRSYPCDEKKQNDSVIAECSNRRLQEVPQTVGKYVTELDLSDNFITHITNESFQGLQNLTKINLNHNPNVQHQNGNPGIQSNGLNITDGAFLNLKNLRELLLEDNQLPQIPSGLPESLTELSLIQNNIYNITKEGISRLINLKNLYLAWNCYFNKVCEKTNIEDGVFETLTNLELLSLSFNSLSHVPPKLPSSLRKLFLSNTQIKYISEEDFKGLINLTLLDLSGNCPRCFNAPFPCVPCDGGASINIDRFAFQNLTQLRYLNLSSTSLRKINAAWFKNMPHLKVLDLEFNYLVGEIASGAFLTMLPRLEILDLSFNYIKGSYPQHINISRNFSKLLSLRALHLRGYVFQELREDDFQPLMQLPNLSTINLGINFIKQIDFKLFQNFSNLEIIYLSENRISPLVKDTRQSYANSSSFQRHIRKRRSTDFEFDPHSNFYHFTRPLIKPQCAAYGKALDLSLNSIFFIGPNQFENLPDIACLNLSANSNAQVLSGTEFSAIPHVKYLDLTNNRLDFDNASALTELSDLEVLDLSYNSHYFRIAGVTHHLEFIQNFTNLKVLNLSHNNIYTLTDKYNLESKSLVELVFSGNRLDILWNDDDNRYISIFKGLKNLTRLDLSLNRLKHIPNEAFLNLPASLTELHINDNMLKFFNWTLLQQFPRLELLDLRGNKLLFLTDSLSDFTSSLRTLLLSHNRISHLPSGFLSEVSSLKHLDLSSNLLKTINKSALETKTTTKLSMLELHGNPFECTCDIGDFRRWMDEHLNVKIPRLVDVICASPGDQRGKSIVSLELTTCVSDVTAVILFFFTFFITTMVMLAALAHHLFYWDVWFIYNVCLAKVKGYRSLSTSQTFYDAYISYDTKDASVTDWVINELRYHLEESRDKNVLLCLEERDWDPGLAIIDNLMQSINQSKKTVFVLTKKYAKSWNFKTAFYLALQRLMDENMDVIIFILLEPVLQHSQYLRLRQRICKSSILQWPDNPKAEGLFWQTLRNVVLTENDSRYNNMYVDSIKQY
Protocol: (§1) 3×10^4 HEK-Blue™ TLR7 or 3×10^4 TLR8 reporter cells (InvivoGen, San Diego, CA) were treated with titrated (4-fold) amounts of test compound. […] Cells were incubated overnight at 37° C. and 5% CO2, then absorbance (620 and 655 nm) was read on a Synergy™ H1 microplate reader.

PBMCs [2] = test: PBMC assay, TNF-α release (HTRF); type: cell-based; conditions: PBMCs from healthy donors, overnight, TNF-α induction by HTRF
Protocol: Whole peripheral blood was obtained from healthy donors. PBMCs were isolated from peripheral blood by density gradient centrifugation. […] Technologies, Vancouver, Canada) and centrifuged at 1200×G for 10 minutes in SepMate™ tubes (#15450, […] Technologies). The plasma layer containing PBMCs was poured into a new tube and washed twice. Isolated PBMCs were either used fresh or thawed from previously frozen. 1×10^5 PBMCs were cultured with titrating concentrations of compounds of Formula I overnight followed by assaying for cytokines by homogeneous time resolved fluorescence (HTRF). Compounds were dissolved in DMSO.

TLR7 = molecular target: T2, TLR7 (Homo sapiens, UniProt Q9NYK1); test: Reporter gene assay, HEK-Blue TLR7 reporter cells (SEAP)
T2 sequence (Q9NYK1 27-1049): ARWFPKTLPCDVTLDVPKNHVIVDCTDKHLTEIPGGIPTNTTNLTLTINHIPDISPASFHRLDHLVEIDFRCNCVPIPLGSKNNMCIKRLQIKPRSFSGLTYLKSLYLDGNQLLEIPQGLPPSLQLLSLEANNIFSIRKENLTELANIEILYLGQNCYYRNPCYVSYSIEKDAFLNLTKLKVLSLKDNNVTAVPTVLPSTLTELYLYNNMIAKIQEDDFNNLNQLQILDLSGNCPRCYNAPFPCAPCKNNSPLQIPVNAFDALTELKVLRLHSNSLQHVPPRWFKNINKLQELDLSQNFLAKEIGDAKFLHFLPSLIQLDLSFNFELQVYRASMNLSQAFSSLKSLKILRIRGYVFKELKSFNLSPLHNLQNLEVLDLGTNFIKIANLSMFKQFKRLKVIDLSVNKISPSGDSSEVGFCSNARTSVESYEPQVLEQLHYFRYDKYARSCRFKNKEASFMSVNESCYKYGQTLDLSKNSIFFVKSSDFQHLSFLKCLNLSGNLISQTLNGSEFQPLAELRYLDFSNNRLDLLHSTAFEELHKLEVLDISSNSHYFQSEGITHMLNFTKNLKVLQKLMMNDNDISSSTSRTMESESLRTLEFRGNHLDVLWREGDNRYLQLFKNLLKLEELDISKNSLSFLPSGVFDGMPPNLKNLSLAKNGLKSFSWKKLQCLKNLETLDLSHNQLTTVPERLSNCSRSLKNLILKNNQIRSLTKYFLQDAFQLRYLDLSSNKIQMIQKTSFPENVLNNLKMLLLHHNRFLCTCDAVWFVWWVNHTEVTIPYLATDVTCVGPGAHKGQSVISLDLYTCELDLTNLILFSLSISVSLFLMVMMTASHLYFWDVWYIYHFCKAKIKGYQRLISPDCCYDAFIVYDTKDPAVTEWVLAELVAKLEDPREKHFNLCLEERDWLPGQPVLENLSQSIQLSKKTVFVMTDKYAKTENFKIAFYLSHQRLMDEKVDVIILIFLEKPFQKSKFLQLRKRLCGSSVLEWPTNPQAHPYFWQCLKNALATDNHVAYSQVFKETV
Protocol: as §1

Compound	EC50 (TLR8) [nM]	EC50 (TLR7) [nM]	EC50 (PBMCs [1]) [nM]	EC50 (PBMCs [2]) [nM]
CCCCc1nc2c(N)nc3ccsc3c2n1CCCCCNCC(C)(C)N1CCOCC1 [Compound 177, 2-butyl-1-(5-((2-methyl-2-morpholinopropyl)amino)pentyl)-1H-imidazo[4,5-d]thieno [3,2-b]pyridin-4-amine]	570	24	270	
CCCCc1nc2c(N)nc3ccsc3c2n1Cc1cccc(CNCc2ccc(CO)cc2)c1 [Compound 204, (4-(((3-((4-amino-2-butyl-1H-imidazo[4,5-d]thieno[3,2-b]pyridin-1-yl)methyl)benzyl)amino)methyl)phenyl)methanol]	310	68	200	
CCCCc1nc2c(N)nc3ccsc3c2n1CCCCCNCC(C)(C)O [Compound 180, 1-((5-(4-amino-2-butyl-1H-imidazo[4,5-d]thieno[3,2-b]pyridin-1-yl)pentyl)amino)-2-methylpropan-2-ol]	> 1000	83	610	
CCCCc1nc2c(N)nc3ccsc3c2n1Cc1ccccc1CNCCCN1CCN(CCCN)CC1 [Compound 215, 1-(2-(((3-(4-(3-aminopropyl)piperazin-1-yl)propyl)amino)methyl)benzyl)-2-butyl-1H-imidazo[4,5-d]thieno[3,2-b]pyridin-4-amine]	> 1000	> 1000	> 1000	
CCCCc1nc2c(N)nc3ccsc3c2n1CCCCCN1CCC(c2ccncc2)CC1 [Compound 174, 2-butyl-1-(5-(4-(pyridin-4-yl)piperidin-1-yl)pentyl)-1H-imidazo[4,5-d]thieno[3,2-b]pyridin-4-amine]	> 1000	21	78	
CCCCc1nc2c(N)nc3ccsc3c2n1Cc1cccc(CN2CCC(c3ccncc3)CC2)c1 [Compound 198, 2-butyl-1-(3-((4-(pyridin-4-yl)piperidin-1-yl)methyl)benzyl)-1H-imidazo[4,5-d]thieno [3,2-b]pyridin-4-amine]	> 1000	220	280	

Further lines, with some results ahead:

EC50 (TLR8) [nM]	EC50 (TLR7) [nM]	Compound	EC50 (PBMCs [1]) [nM]	EC50 (PBMCs [2]) [nM]
73	310	CCCCc1nc2c(N)nc3ccsc3c2n1Cc1nc(CNCCCCCO)cs1 [Compound 236, 5-(((2-((4-amino-2-butyl-1H-imidazo[4,5-d]thieno[3,2-b]pyridin-1-yl)methyl)thiazol-4-yl)methyl)amino)pentan-1-ol]	310	> 1000
> 1000	27	CCCCc1nc2c(N)nc3ccsc3c2n1CCCCCO [Compound 172, 5-(4-amino-2-butyl-1H-imidazo[4,5-d]thieno[3,2-b]pyridin-1-yl)pentan-1-ol]	580	
> 1000	15	CCCCc1nc2c(N)nc3ccsc3c2n1Cc1ccc(CN2CCN(CCNC(=O)OC(C)(C)C)CC2)cc1 [Compound 165, tert-butyl (2-(4-(4-((4-amino-2-butyl-1H-imidazo[4,5-d]thieno[3,2-b]pyridin-1-yl)methyl)benzyl)piperazin-1-yl)ethyl)carbamate]	65	
490	63	CCCCc1nc2c(N)nc3ccsc3c2n1Cc1cccc(CNCc2cc[nH]c2)c1 [Compound 197, 1-(3-((((1H-pyrrol-3-yl)methyl)amino)methyl)benzyl)-2-butyl-1H-imidazo[4,5-d]thieno [3,2-b]pyridin-4-amine]	290	
> 1000	33	CCCCc1nc2c(N)nc3ccsc3c2n1CCCCCN1CCN(CCN2CCOCC2)CC1 [Compound 176, 2-butyl-1-(5-(4-(2-morpholinoethyl)piperazin-1-yl)pentyl)-1H-imidazo[4,5-d]thieno[3,2-b]pyridin-4-amine]	58	
> 1000	480	CCCCc1nc2c(N)nc3ccsc3c2n1Cc1cccc(CO)c1 [Compound 207, (3-((4-amino-2-butyl-1H-imidazo[4,5-d]thieno[3,2-b]pyridin-1-yl)methyl)phenyl)methanol]	> 1000	
> 1000	67	CCCCc1nc2c(N)nc3ccsc3c2n1Cc1ccc(CN(CCN(CCCC)CCCC)CCN(CCCC)CCCC)cc1 [Compound 152, N^1-(4-((4-amino-2-butyl-1H-imidazo[4,5-d]thieno[3,2-b]pyridin-1-yl)methyl)benzyl)-N^2,N^2-dibutyl-N^1-(2-(dibutylamino)ethyl)ethane-1,2-diamine]	59	

Reference: US20250179088A9 (ZYMEWORKS BC INC., priority 2020, published 2025)
